Source: patent publication US6376536B1, “Quaternary ammonium salts and their use” (Takeda Chemical Industries, Ltd., priority 1998, dated 2002)
Where a name gives a salt, the structure may show the parent alone. One block for each compound: values may come before it.

Experiments:
[1] = system: HIV-1 BA-L; experiment: Inhibitory effect on HIV-1 infection to MAGI-CCR5 cell; format: cell-based; conditions: Human immunodeficiency virus 1, BAL, 48 h; 0.064 μM Test Compound medium; MAGI-CCR5 cells; 300 PFU HIV-1 BA-L; 2 days; blue cell count
Description: The plasmid where β-galactosidase gene was ligated downstream of HIV-1 LTR was introduced into CD4 positive HeLa cell, to which human CCR5 was further introduced to obtain transformant MAGI-CCR5. By using said transformant MAGI-CCR^5, degree of HIV-1 infection was calculated from β-galactosidase activity (blue color due to decomposition of 5-bromo-4-chloro-3-indolyl-β-D-galactopyranoside). Specifically, MAGI-CCR5 cells were suspended in DMEM medium containing 10% serum to prepare 5×10^4 cells/ml suspension. To each well of 96 well plate was inoculated 200 μl of the suspension, and the cells were cultivated at 37° C. overnight. The medium was removed by means of suction, and to the residue was added 100 μl of the above medium containing 0.064 μM of Test Compound and 100 μl of the above medium containing 300 PFU of HIV-1 BA-L cells. The cells were cultivated at 37° C. for 2 days. The medium was removed by means of suction. To the residue was added 200 μl of cell fixative (PBS containing 1% formaldehyde and 0.2% glutaraldehyde), and the mixture was allowed to stand at room temperature for 5 minutes and washed twice with PBS. […] The number of blue cells was counted by microscope and defined as the number of cells infected with HIV-1.

[2] = system: HIV-1 BA-L; experiment: Inhibitory effect on HIV-1 infection to human PBMC (p24 antigen ELISA); format: cell-based; conditions: Human immunodeficiency virus 1, BAL, 0.032 μM Test Compound solution, p24 antigen in supernatant
Description: From normal person human peripheral blood mononuclear cells (PBMC) were separated, and the cells were stimulated with 10 μg/ml of PHA (Phytohemaglutinin) and 20 U/ml of interleukin-2 (IL-2) for 3 days. The cells were suspended in RPMI-1640 medium containing 20% serum to prepare 1×10 ^6/ml suspension. To the suspension were infected HIV-1 BA-L cells (20 ng as an amount of p24 antigen), and viruses were absorbed at 37° C. for 2 hours. The cells were washed and suspended in RPMI-1640 medium containing 20% serum and IL-2 20 U/ml to prepare 1×10^5/ml suspension. To the PBMC suspension was added the same amount of a solution which contains 0.032 μM of Test Compound, and the cells were cultivated at 37° C. in carbon dioxide gas incubator. The amount of p24 antigen in supernatant of the cultivated medium was determined by enzyme-linked immunosorbent assay (ELISA) and defined as degree of HIV-1 infection.

[3] = target: T1, human CCR5 (Homo sapiens, UniProt P51681); experiment: [125I]-RANTES binding inhibition on CHO/CCR5 cells; conditions: Test Compound 1 μM, 100 pM [125I]-RANTES
T1 construct: expressed in transfected cells; plasmid pCKR5 = pcDNA3.1 with about 1.0 kb CCR5 insert
Description: CHO-K1 cells were grown in 750 ml of tissue culture flask (Becton Dickinson) using Ham's F12 medium (Nihon Pharmaceutical) containing 10% fetal calf serum (Life Tech Oriental) and took off with 0.5 g/L trypsin-0.2 g/L EDTA (Life Tech Oriental). The cells were washed with PBS (Life Tech Oriental), centrifuged (1000 rpm, 5 minutes), and suspended in PBS. With using Gene Pulser (Bio-Rad Laboratories), DNA was introduced into the cells under the conditions shown below. That is, to the cuvette of 0.4 cm gap were added 8×10^6 cells and 10 μg of plasmid pCKR5 for expression of human CCR5, and electroporation was carried out under 0.25 kV of voltage and 960 μF. of capacitance. The cells where transferred into Ham's F12 medium (Nihon Pharmaceutical) containing 10% fetal calf serum, and cultivated for 24 hours. The cells were again took off and centrifuged, and suspended in Ham's F12 medium (Nihon Pharmaceutical) containing 10% fetal calf serum and 500 μg/ml of geneticin (Life Tech Oriental). […] Radioactivity was determined with γ-counter to select CHO/CCR5 cells which specifically bind to the ligand.
The CHO/CCR5 were inoculated on 96 well microplate (5×10^4 cells/well) and cultivated for 24 hours. […] Radio-activity was determined with TopCount Micro Scintillation Counter (Packard Instrument, Inc.). […]

T1 sequence (P51681 whole entry): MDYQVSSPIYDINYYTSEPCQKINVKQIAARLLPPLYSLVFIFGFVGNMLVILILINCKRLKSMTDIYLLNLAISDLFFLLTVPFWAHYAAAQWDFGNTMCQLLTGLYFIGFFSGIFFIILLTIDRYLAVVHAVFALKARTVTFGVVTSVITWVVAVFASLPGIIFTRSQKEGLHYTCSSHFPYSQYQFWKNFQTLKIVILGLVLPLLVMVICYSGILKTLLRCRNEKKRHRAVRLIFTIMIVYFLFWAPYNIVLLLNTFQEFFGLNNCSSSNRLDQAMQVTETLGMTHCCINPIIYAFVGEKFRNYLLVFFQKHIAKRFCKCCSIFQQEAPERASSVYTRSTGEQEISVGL

Structure (SMILES): Cc1ccc(-c2ccc3c(c2)C=C(C(=O)Nc2ccc(C[N+](C)(C)C4CCOCC4)cc2)CCC3)cc1 [Compound 1, N,N-dimethyl-N-(4-(((2-(4-methylphenyl)-6,7-dihydro-5H-benzocyclohepten-8-yl)carbonyl)amino)benzyl)-N-(4-tetrahydropyranyl)ammonium chloride]
inhibition at 0.064 µM [1]: 100% | inhibition at 0.032 µM [2]: 74%

Inhibition Rate (%) to CCR5 binding [3]: 96%
Structure (SMILES): Cc1ccc(-c2ccc3c(c2)C=C(C(=O)Nc2ccc(C[N+](C)(C)C4CCC(=O)CC4)cc2)CCO3)cc1.[Cl-] [Compound 2]

melting point: 200 to 204 °C
Structure (SMILES): CCOc1ccc(-c2ccc3c(c2)C=C(C(=O)Nc2ccc(C[N+](C)(C)C4CCOCC4)cc2)CCO3)cc1 (as salt: chloride) [Compound 3, N-(4-(((7-(4-ethoxyphenyl)-2,3-dihydro-1-benzoxepin-4-yl)carbonyl)amino)benzyl)-N,N-dimethyl-N-(4-tetrahydropyranyl)ammonium chloride]
